Consider one compound from publication PMC8160210, “Single tryptophan Y160W mutant of homooligomeric E. coli purine nucleoside phosphorylase implies that dimers forming the hexamer are functionally not equivalent” (Scientific Reports, 2021).

Like-named read-outs stand apart in the source and are kept apart here.

The Km is the substrate concentration at which the rate is half of its maximum.

One experiment has as its target Y160W PNP mutant (Escherichia coli, UniProt P0ABP8, Y161W). The following applies: phosphate as variable substrate, 0.4 mM m^7Guo, allostery Eq. (2). The procedure:
Activity measurements were performed for each protein sample, before and after each experiment as a control of the state of the protein.
The classical Michaelis–Menten equation was fitted to the kinetic curves (i.e. initial rate of the reaction, v0, vs. initial substrate concentration, c0):1 v0c0=Vmax1c0/c0+KM1
Coefficients a and b express the degree of cooperation between the subunits in a dimer, while constants KM1 and Vmax1 characterize the active sites of the enzyme when the neighbouring site is free.
A more complex model was used if there was a statistically significant decrease in the residual sum of squares as judged by the F test at 95% confidence level.

The next experiment deals with T1, WT E. coli PNP (Escherichia coli, UniProt P0ABP8).
T1 construct: made in house
T1 sequence (P0ABP8 2-239 limits assumed): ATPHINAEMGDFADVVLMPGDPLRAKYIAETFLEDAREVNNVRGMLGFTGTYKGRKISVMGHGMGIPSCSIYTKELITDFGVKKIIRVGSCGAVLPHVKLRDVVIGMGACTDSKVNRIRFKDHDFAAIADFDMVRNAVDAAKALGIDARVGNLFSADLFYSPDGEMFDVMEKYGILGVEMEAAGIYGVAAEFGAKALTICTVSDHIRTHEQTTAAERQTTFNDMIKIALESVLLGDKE
Put plainly: Fluorescence titrations with phosphate. The following applies: three-binding-site model, 25 °C. The procedure: All experiments were carried out on the Perkin-Elmer LS55 spectrofluorimeter. Fluorescence spectra were registered using in each case (protein or protein–ligand complex) several excitation wavelengths. Differential spectra were calculated by subtracting spectrum of a protein from the spectrum of the appropriate complex. The negative differential fluorescence intensity means that a decrease of fluorescence upon complex formation is observed. Titrations of the enzyme with phosphate were registered using several excitation and observation wavelengths combinations. When selecting specific wavelengths for such a combination, two criteria were used: (1) the overall change in the fluorescence signal and (2) the complexity of the shape of the titration as the analysis of the multi-phasic curves is more explicit than a uni-phasic curve analysis.
Path length for the excitation was 2 mm and for the emission was 5 mm (half of the cuvette dimensions). A continuous stirring was used during titrations. All measurements were performed at 25 °C. […]
Fluorescence intensity of the WT protein is stable over time, but in the case of the Y160W mutant a slight quenching of fluorescence is observed during titration, which typically lasted about 30 min as the time between each point in the titration was 1 min. Furthermore, adding phosphate during titration stabilises the intrinsic fluorescence of the protein. […] Thus corrected binding curves, F^cor([Pi]), are given by the following equation, in which Fn([Pi]) is the fluorescence intensity measured for the phosphate concentration [Pi], and n is the number of a given titration point in the particular titration:4 FncorPi=FnPi+∑m=1naPim
To check its influence on the intrinsic protein fluorescence, titrations with NaCl were performed, giving dependence F(I). […] Titration curves of the WT protein with phosphate were therefore measured up to 100 mM ionic strength of solution, which is enough to observe a plateau. […] Both F^obs([Pi]) and F(I) were corrected for the time dependent fluorescence quenching, according to Eq. (4), prior to the F^bind([Pi]) calculation. […]

Sequence of Y160W PNP mutant (P0ABP8 2-239 Y161W): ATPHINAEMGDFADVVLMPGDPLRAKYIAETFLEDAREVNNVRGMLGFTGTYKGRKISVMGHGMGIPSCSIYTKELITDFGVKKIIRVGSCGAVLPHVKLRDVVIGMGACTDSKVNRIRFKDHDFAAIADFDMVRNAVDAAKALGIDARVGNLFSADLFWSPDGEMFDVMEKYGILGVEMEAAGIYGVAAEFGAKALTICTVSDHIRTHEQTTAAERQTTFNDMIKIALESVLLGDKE

As to `O=P(O)(O)O` [Pi, Orthophosphate], at Y160W PNP mutant, the “a (cooperativity coefficient, KM2 = aKM1)” value is given as 390 ± 122 and the “b (cooperativity coefficient, Vmax2 = bVmax1)” value was 0.94 ± 0.05. Moreover, at Y160W PNP mutant (pH 7.0, 25 °C), the Km was 18.7 ± 2.7 µM and the Vmax worked out at 11.7 ± 0.4 U/mg. For the same compound, the Kd on WT E. coli PNP (50 mM Tris/HCl pH 7.6, read-out: Kd1 ± SD) amounted to 4.4 µM. The Kd at WT E. coli PNP (50 mM Tris/HCl pH 7.6, read-out: Kd2 ± SD) turned out to be 84 µM. Besides, the Kd on WT E. coli PNP (50 mM Tris/HCl pH 7.6, read-out: Kd3 ± SD) turned out to be 1770 µM.
